From ChEMBL document CHEMBL4371085, “Novel M4 positive allosteric modulators derived from questioning the role and impact of a presumed intramolecular hydrogen-bonding motif in β-amino carboxamide-harboring ligands” (Bioorg Med Chem Lett, 2019)

Key:
[1] = Brain to plasma partition coefficient, Kp of the compound in rat; type: ADME, cell-free
[2] = target: T1, Muscarinic acetylcholine receptor M4 (Homo sapiens, UniProt P08173); test: Positive allosteric modulation of Gqi5-fused human M4 AChR assessed as increase in acetylcholine-induced calcium mobilization; type: functional
T1 sequence (P08173 whole entry): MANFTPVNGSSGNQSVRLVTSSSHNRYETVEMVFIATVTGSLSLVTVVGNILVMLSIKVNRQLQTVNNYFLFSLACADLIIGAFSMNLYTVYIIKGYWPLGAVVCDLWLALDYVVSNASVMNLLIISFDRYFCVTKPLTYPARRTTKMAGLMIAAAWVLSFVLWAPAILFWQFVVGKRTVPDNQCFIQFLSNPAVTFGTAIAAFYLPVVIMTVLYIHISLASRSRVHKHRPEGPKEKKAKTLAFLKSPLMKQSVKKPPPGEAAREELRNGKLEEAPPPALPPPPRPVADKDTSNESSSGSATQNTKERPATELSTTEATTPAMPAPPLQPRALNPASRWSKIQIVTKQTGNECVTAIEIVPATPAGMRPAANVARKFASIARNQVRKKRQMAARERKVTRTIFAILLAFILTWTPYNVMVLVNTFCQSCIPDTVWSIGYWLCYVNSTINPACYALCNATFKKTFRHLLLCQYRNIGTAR

[3] = target: T2, Muscarinic acetylcholine receptor M4 (Homo sapiens) (UniProt P08173); test: Positive allosteric modulation of Gqi5-fused human M4 AChR assessed as increase in acetylcholine-induced calcium mobilization relative to acetylcholine alone; type: functional
T2 sequence (whole entry): T1 sequence (P08173 whole entry)

[4] = Fraction unbound in rat plasma; type: ADME, cell-free
Cytochrome P450 = test: Inhibition of CYP450 (unknown origin); type: ADME, protein assay; details: human
P-gp (ABCB1) = P-gp (ABCB1) (Homo sapiens, UniProt P08183); test: Substrate activity at human P-gp assessed as efflux ratio; type: ADME; details: not told
Cytochrome P450 1A2 = target: T3, Cytochrome P450 1A2 (Homo sapiens, UniProt P05177); test: Inhibition of CYP1A2 (unknown origin); type: ADME
T3 sequence (P05177 whole entry): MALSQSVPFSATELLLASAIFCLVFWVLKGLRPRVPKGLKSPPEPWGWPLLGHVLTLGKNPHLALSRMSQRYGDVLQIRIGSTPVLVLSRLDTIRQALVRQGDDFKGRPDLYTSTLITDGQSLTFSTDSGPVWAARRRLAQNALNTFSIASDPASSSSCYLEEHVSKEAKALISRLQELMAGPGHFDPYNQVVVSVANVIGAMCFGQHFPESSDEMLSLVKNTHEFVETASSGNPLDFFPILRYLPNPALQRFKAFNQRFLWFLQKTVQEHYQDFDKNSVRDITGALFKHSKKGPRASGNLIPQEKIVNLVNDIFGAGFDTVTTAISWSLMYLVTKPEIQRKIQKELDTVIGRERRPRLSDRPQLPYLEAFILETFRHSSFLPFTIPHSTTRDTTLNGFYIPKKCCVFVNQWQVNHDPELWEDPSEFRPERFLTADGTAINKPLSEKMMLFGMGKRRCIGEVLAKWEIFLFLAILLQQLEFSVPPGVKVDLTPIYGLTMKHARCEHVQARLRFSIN

Cytochrome P450 2C9 = Cytochrome P450 2C9 (Homo sapiens, UniProt P11712); test: Inhibition of CYP2C9 (unknown origin); type: ADME
Chain of Cytochrome P450 2C9 (P11712 whole entry): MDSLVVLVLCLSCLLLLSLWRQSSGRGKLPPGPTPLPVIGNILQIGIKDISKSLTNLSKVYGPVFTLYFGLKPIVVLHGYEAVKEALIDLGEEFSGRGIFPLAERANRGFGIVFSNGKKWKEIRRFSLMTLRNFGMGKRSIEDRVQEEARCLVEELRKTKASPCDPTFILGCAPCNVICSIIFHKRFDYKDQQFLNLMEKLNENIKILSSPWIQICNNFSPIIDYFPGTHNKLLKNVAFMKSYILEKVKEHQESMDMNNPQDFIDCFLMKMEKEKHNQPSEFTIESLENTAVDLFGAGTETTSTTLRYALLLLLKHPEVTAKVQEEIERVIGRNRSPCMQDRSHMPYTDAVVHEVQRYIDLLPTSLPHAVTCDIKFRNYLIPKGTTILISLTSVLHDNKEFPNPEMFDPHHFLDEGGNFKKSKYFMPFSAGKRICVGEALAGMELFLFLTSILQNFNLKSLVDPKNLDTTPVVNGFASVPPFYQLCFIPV

Chain of P-gp (ABCB1) (P08183 whole entry): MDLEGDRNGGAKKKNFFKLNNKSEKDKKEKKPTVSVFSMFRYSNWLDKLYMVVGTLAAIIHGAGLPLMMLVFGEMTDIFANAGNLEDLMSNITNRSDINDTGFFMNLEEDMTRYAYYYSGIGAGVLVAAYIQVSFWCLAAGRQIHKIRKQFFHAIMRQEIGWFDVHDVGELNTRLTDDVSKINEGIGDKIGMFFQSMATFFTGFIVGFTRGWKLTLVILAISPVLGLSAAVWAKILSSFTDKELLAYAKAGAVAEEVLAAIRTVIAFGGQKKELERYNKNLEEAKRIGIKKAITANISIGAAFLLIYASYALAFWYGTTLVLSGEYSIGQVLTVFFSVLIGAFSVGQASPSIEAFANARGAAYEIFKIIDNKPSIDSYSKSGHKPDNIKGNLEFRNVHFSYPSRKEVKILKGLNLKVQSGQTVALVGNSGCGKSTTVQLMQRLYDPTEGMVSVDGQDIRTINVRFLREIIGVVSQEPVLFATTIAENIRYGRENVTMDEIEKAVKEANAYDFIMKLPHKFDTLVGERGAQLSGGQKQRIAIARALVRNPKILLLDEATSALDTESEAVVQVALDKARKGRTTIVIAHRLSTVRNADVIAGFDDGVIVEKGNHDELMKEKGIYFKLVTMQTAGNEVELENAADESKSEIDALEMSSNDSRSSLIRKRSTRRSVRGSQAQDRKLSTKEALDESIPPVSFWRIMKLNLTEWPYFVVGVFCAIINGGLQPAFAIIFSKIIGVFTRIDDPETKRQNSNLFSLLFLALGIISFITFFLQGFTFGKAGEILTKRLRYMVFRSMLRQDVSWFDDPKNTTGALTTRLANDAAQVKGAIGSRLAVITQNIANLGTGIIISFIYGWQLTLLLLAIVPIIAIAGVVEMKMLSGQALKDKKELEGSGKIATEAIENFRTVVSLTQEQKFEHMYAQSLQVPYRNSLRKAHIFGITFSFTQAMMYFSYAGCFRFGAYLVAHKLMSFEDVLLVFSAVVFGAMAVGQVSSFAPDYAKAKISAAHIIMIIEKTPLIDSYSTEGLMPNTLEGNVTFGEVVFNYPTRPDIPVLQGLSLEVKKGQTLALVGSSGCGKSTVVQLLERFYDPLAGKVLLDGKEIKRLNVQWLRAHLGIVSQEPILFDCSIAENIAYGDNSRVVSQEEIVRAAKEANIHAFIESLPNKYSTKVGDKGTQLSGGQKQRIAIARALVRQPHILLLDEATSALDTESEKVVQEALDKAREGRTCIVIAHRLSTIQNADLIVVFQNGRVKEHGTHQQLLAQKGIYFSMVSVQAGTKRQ

SMILES	EC50 [2] [nM]	Emax [3] [%]	fraction unbound [4]	inhibition (INH) (Cytochrome P450)	other results
COc1ccc(CNc2nn(C)c3c2sc2nnc(C)c(C)c23)cc1	40	79	–	–	Kp [1]: 0.25; Fu [4]: 0.02; INH (Cytochrome P450): > 30 µM
Cc1nc2sc3c(NCc4ccccc4)nn(C)c3c2c(C)c1Cl	> 10000	39	–	–	–
Cc1nnc2sc(C(=O)NC3COC3)c(C3CC3)c2c1C	> 10000	38	< 0.005	Active	–
COc1ccc(CNC(=O)c2sc3nnc(C)c(C)c3c2C2CC2)cc1F	5600	35	< 0.005	Active	–
Cc1cc(C)c2c(C)c(C(=O)NCc3ccc(OC(F)(F)F)cc3)sc2n1	> 10000	29	< 0.005	Active	–
COc1ccc(CNc2n[nH]c3c2sc2nc(C)cc(C)c23)cc1	2200	67	–	–	Fu [4]: < 0.002; INH (Cytochrome P450): < 5 µM
COc1ccc(CNC(=O)c2cc3c(C)c(C)nnc3s2)cc1F	1500	66	< 0.005	Active	–
Cc1nnc2sc3c(NCC4CC4)nn(C)c3c2c1C	620	84	–	–	–
Cc1cc(C)c2c(n1)sc1c(NCc3ccco3)n[nH]c12	1200	76	–	–	–
Cc1nnc2sc3c(NCc4ccc(S(C)(=O)=O)c(F)c4)nn(C)c3c2c1C	160	58	–	–	Fu [4]: 0.05; INH (Cytochrome P450): > 30 µM; efflux ratio (P-gp (ABCB1)): > 10
Cc1cc(C)c2c(C)c(C(=O)NCc3ccc(S(C)(=O)=O)cc3)sc2n1	6400	58	< 0.005	Active	–
CSc1ccc(CNC(=O)c2sc3nc(C)cc(C)c3c2C)cc1	1500	45	< 0.005	Active	–
Cc1cc(C)c2c(C)c(C(=O)NCc3ccc4c(c3)OCCO4)sc2n1	2100	56	< 0.005	Active	–
COc1ccc(CNC(=O)c2cc3c(C)cc(C)nc3s2)cc1	5100	53	< 0.005	Active	–
Cc1nc2sc3c(NCC4CC4)nn(C)c3c2c(C)c1Cl	230	67	–	–	Fu [4]: < 0.001; IC50 (Cytochrome P450 1A2): < 100 nM; IC50 (Cytochrome P450 2C9): 1000 nM
COc1ccc(CNC(=O)c2sc3nnc(C)c(C)c3c2C)cc1F	2100	56	< 0.005	Active	–

SMILES	EC50 [2] [nM]	Emax [3] [%]	fraction unbound [4]	inhibition (INH) (Cytochrome P450)	other results
Cc1nc2sc3c(NCc4ccco4)nn(C)c3c2c(C)c1Cl	120	59	–	–	Fu [4]: < 0.001; IC50 (Cytochrome P450 1A2): < 100 nM; IC50 (Cytochrome P450 2C9): 1000 nM
Cc1nc2sc3c(NCc4ccc(F)cc4)nn(C)c3c2c(C)c1Cl	> 10000	56	–	–	–
Cc1nnc2sc3c(NCc4ccc5c(c4)OCCO5)nn(C)c3c2c1C	60	91	–	–	–
Cc1cc(C)c2c(n1)sc1c(NCc3ccc(F)cc3)n[nH]c12	1100	62	–	–	–
CCc1c(C(=O)NCc2ccc(OC)c(F)c2)sc2nnc(C)c(C)c12	2200	73	< 0.005	Active	–
COc1ccc(CNc2nn(C)c3c2sc2nc(C)c(Cl)c(C)c23)cc1	> 10000	51	–	–	–
COc1ccc(CNC(=O)c2sc3nc(C)cc(C)c3c2C)cc1	2700	49	< 0.005	Active	–
CCc1c(C(=O)NCc2ccc(S(C)(=O)=O)cc2)sc2nc(C)cc(C)c12	2700	57	< 0.005	Active	–
Cc1cc(C)c2c(C)c(C(=O)NCc3ccc4c(c3)CCO4)sc2n1	5900	50	< 0.005	Active	–
Cc1cc(C)c2c(n1)sc1c(NCC3CCCC3)n[nH]c12	3800	65	–	–	–
Cc1cc(C)c2c(n1)sc1c(NCC3CC3)n[nH]c12	2000	67	–	–	–
COc1ccc(CNC(=O)c2sc3nnc(C)c(C)c3c2N)cc1F	–	75	–	–	–
Cc1nnc2sc3c(NCC4CCCO4)nn(C)c3c2c1C (stereo unspecified)	180	102	–	–	–
Cc1cc(C)c2c(n1)sc1c(NCc3ccccc3)n[nH]c12	1000	66	–	–	–
Cc1nnc2sc3c(NCc4ccco4)nn(C)c3c2c1C	690	91	–	–	–
